Source: patent US8785393B2, “Ophthalmic pharmaceutical compositions of DP2 receptor antagonists” (Panmira Pharmaceuticals, LLC, priority 2009, dated 2014)

Assays:
[1] = tested on: respiratory syncytial virus (RSV) eye infection; assay type: in vivo; settings: topical 60 ng/eye once daily, 14 days
Description: A mouse model of respiratory syncytial virus (RSV) eye infection is used to test the effects of ocular application of DP2 receptor antagonist compound on RSV-induced ocular immunopathology (Bitko V, et al., J. Virol. 2007; 81(2):783-90; Bitko V, et al., Nat. Med. 2005; 11(1):50-5). Each mouse eye is topically treated with 60 ng DP2 receptor antagonist compound or vehicle (sterile saline) in a volume of 2 μl. The DP2 receptor antagonist compound is instilled 40 min after virus inoculum and then once daily over the entire duration of the protocol (14 days).
Instillation of virus and inhibitor in the eye. Female BALB/c mice, 6 to 8 weeks old, are purchased from Charles River Laboratories. […]
Ocular pathology. Ocular disease is evaluated with a slit lamp biomicroscope (Bitko V, et al., J. Virol. 2007; 81(2):783-90)15; Girgis et al., Invest. […] Pathology is scored on a scale of 0 to 5 as follows: 0=clear eye; 1=slight redness in the corners; 2=moderate redness and injection; 3=conjunctival and corneal injection with ciliary flush; 4=extensive injection, generally associated with some mucus; 5=most extensive injection, associated with mucus. Eyes are examined in a coded fashion with the reader unaware of the treatment given. The presence of gummy residue or mucin in the eyes is recorded. […]

[2] = tested on: guinea pig model of allergic conjunctivitis; assay: Guinea pig model of allergic conjunctivitis (ovalbumin); assay type: in vivo, Hartley Guinea pigs
Description: A guinea pig model of allergic conjunctivitis is used to test the effect of topical administration of a DP2 receptor antagonist to the eye on the development of allergic conjunctivitis. Male Hartley Guinea pigs ages 4-8 weeks (300-500 grams) at the beginning of the experiment were sensitized by intraperitoneal injection of ovalbumin [0.5 ml of a 100 μg/ml solution in Imject Alum. An additional 0.5 ml of the ovalbumin (OVA) solution is injected subcutaneous in the proximity of the lymph nodes (Muise et al., 2002). Twenty one days after sensitization, guinea pigs received an ocular challenge. Briefly, animals were secured within a towel and placed in a lateral recumbent position. Ten microliters of saline or OVA (2.5% in Saline) was topically applied to each eye, followed by 2-3 manually forced blinks. This procedure is repeated again on day 23. Clinical scoring of redness (using a scale of 0-3), edema (using a scale of 0-3) and discharge (using a scale of 0-4) were evaluated 90 minutes after challenge on day 23. The itch/scratch response was observed and recorded (using a scale of 0-3) for the first 30 minutes after challenge on day 23. The DP2 receptor antagonist (compound 2; {2′-[(N-cyclopropanecarbonyl-N-ethyl-amino)-methyl]-6-methoxy-4′-trifluoromethyl-biphenyl-3-yl}-acetic acid) was administered on days 21-23 by topical application using the procedure described above in a concentration of 300 ng/eye in PBS vehicle. Oral administration was also evaluated by gavage of compound 2 (10 mg/kg) prepared in 0.5% Methylcellulose or water. The means±standard error of the mean were plotted and analyzed by one-way ANOVA using Graphpad Prizm.

[3] = tested on: mouse model of ragweed-induced allergic conjunctivitis; assay: Mouse ragweed allergic conjunctivitis; assay type: in vivo; settings: topical 0.3% in PBS, three times daily, days 9-15, FIG. 5
Description: A mouse model of ragweed-induced allergic conjunctivitis was used to test the efficacy of topical administration of a DP2 receptor antagonist to the eye on the development of allergic conjunctivitis. Compound 2 was evaluated in a mouse model of ocular allergy. In this model, a systemic sensitization with an allergen (Short Ragweed, SRW) was followed by topical challenge with the same allergen. For sensitization a suspension of 50 μg of short ragweed allergen (SRW, Greer, Lenoir, NC, USA) 25 μl of Aluminum Hydroxide (13 mg/ml, Sigma Aldrich) was injected into both hind rear footpads (Day 0). On days 9 through 15, topical treatment with compound 2 (0.3% in PBS), positive control (Prednisolone Acetate 1% in hypromellose), or vehicle control (PBS) was administered three times daily. Mice were dosed topically to the central cornea using a calibrated micropipette, with a 5 μL drop of treatment in each eye. On days 13 through 15 mice were challenged with topical doses of 1000 μg SRW suspension in 5 μl PBS in each eye. SRW was prepared fresh daily, and used within 3 hours of mixing, and mixed well before administration to ensure homogeneity. Thirty minutes after the final challenge (Day 15) clinical signs (discharge, lid swelling hyperemia, chemosis, and squinting) were evaluated using the aid of a dissecting microscope. A cumulative score was also recorded including all parameters measured with the exception of squinting.

[4] = topical 300 ng/eye in PBS, days 21-23, scored 90 minutes after challenge on day 23, FIG. 3
[5] = scored 30 min after final challenge (Day 15)

Compound: CCN(Cc1cc(C(F)(F)F)ccc1-c1cc(CC(=O)O)ccc1OC)C(=O)C1CC1 [compound 2, {2′-[(N-cyclopropanecarbonyl-N-ethyl-amino)-methyl]-6-methoxy-4′-trifluoromethyl-biphenyl-3-yl}-acetic acid]
- RSV eye pathology ([1]; FIG. 4 (A)): reduced
- eye IL4 induction ([1]; FIG. 4 (B)): reduced
- any endpoint (redness, edema, discharge, itch/scratch, clinical score) ([2]; oral gavage 10 mg/kg): failed to impact any endpoint
- cummulative clinical score ([2]; topical 300 ng/eye in PBS, days 21-23, after ocular antigen challenge, FIG. 3): significantly reduced
- itch/scratch response ([2]; topical 300 ng/eye in PBS, days 21-23, first 30 minutes after challenge on day 23, FIG. 3): trend toward reduction
- Ocular edema [2, 4]: trend toward reduction
- discharge [2, 4]: significantly reduced
- redness [2, 4]: significantly reduced
- cumulative clinical score ([3]; all parameters except squinting): significantly reduced
- chemosis [3, 5]: significantly reduced
- discharge [3, 5]: significantly reduced
- lid swelling [3, 5]: significantly reduced
